Laboratory results taken from patent publication US4652584A, “Acetylenic phenoxypropanol derivatives and pharmaceutical compositions for the treatment of hypertension” (McNeilab, Inc., priority 1984, dated 1987).
Read-outs that look alike come from different tables or passages of the source.

Columns and labels:
[1] = test system: isolated rabbit thoracic aorta (potential-dependent calcium channel); assay: Calcium Entry Blockade test: 45Ca influx in vascular rings; conditions: for calcium channel blocking / calcium entry blockade activity: overall result in words
Description: (§1) A fourth test for determining the ability of compounds of the invention to act as anti-hypertensive agents is the Calcium Entry Blockade test using vascular smooth muscle. Male New Zealand White Rabbits (H.A.R.E.) (body weight=1.8-2.4 kg) are sacrificed by cervical fracture and the thoracic aorta is removed under standard HEPES buffer. The aorta is rinsed in several changes of standard HEPES and cleared of extraneous tissue. Scissors are used to segment the aorta into 3 mm rings (approximately 12 rings/aorta). For studies of tension, individual rings are equilibrated for one hour in standard HEPES buffer under isometric tension (1 g) between two parallel horizontal wires. For calcium influx studies, the following procedures are executed. After completion of the one-hour equilibration period, the test is begun. To baths containing vascular rings to be tested for the effects of an experimental agent on calcium influx in the basal state (absence of an agonist), the agent dissolved in 20 μl of vehicle (PEG 300 or H2 O) is added and a parallel vehicle bath is started receiving the vehicle alone. To baths containing vascular rings to be tested for the effects of an experimental agent on calcium influx during agonist stimulation, the experimental agent is added in a fashion identical to that described for the basal test and parallel vehicle baths are also initiated. All baths are allowed to equilibrate for 30 minutes. Subsequently, to basal test baths, 20 μl of H2 O is added; to baths receiving KCl, 400 μl of H2 O containing 60 mM KCl is added; to baths receiving NE, 20 μl of H2 O containing 10 μM NE is added. All baths are allowed to equilibrate for an additional 281/2 minutes. At this time, all rings in each bath are removed from their respective bath, quickly but gently blotted and transferred to a bath containing an identical solution but also containing ^45 Ca(20 μl, 2.5 μCi/ml; New England Nuclear, Boston, MA). Rings are allowed exposure to the radiolabelled solution for exactly three minutes. Subsequently, the rings are removed, blotted to remove excess fluid, and placed in predesignated test tubes containing ice cold wash solution where they are allowed to equilibrate for 45 minutes in the presence of vigorous bubbling with 100% O2. Subsequently, individual rings are removed, blotted, weighed (Mettler Balance model AE 163), and placed in a scintillation vial containing 2 ml of 7.5 mM EDTA solution (pH=10.0). Vials are held overnight in darkness. […] Subsequently, 13 ml of Beckman HP scintillation fluid is added to each vial with shaking, vials are cleaned, and counted using a Beckman LS 6800 liquid scintillation counter. Blanks containing solutions alone are simultaneously counted to provide background information.
(§2) For tension studies, the following procedures are executed. After completion of the one-hour equilibration period, the test is begun. At this time, all tissue tensions are adjusted mechanically back to the 1 gram baseline. Subsequently, all tissue baths receive either KCl (60 mM) plus phentolamine (1 μM) in 400 μl H2 O or NE (10 μM in 20 μl PEG 300). All rings are allowed to develop tension for exactly 30 minutes. Subsequently, the bathing solution is removed and replaced immediately with normal HEPES buffer without experimental agents and the tension response is allowed to "wash out". Two subsequent washes are introduced at 10 minute intervals before the rings can achieve the prestimulation baseline tone. Subsequently, the experimental drug or vehicle is added to each bath and the rings are allowed to equilibrate for exactly 30 minutes. Finally, the agonist challenge is repeated as described previously in the presence of the experimental agent. […]

[2] = test system: isolated rabbit thoracic aorta; assay: Calcium Entry Blockade test: tension (tone) of vascular rings; conditions: for inhibition at 10 µM: Oryctolagus cuniculus, 10 μM compound
Description: as §1, §2

Beta Adrenergic = assay: Evaluation of Potential Beta Adrenergic Blocking Activity; set-up: species or system guinea pig; conditions: overall result in words
[3] = test system: Isolated Heart (coronary arteries); assay: Langendorff's Isolated Heart model (coronary vasodilation)
Protocol: In addition to their utility in the treatment of hypertension, the compounds of formula (I) are useful in the treatment of the symptoms of angina pectoris by virtue of their ability to dilate coronary arteries. Often, peripheral arteries are also dilated by compounds which dilate coronary arteries and thus, this test is also useful for predicting activity as an antihypertensive. Compounds of the invention were tested in this regard in the "Langendorff's Isolated Heart" model as generally described in "Pharmaceutical Experiments on Isolated Preparations", Staff of the Department of Pharmacology, University of Edinbourgh, 2nd Ed., Churchill, Livingston, N.Y. (1970) pages 112-119. In this test, the compound of the invention of formula (I) produced in Example 6b. required a 0.04 μM concentration to elicit a 30% increase in flow.

[4] = test system: spontaneously hypertensive rats; assay: Spontaneously Hypertensive Rat (SHR) test, mean arterial pressure via aortic cannula; format: in vivo; conditions: 30 mg per kg of body weight, p.o.
Description: The activity of compounds of formula (I) for the treatment of hypertension may be determined using the Spontaneously Hypertensive Rat (SHR) test as described below.
In this test, the arterial pressure of adult spontaneously hypertensive rats (Charles River) is monitored directly via an aortic cannula. The SH rats are anesthetized with an inhalation anesthetic (ether). The left carotid artery is isolated and cannulated. The tip of the cannula is advanced to the aorta and the cannula is exteriorized behind the neck at the level of the scapula. Animals are placed in individual cages and allowed to recover from the anesthetic and are kept unrestrained. The arterial cannula is connected to the pressure transducer which is attached to the recorder. The test compounds are administered to at least 3 rats at doses selected in the range of 0.1 to 100 mg/kg of body weight by intraperitoneal (i.p.) or oral (p.o.) routes of administration. The arterial pressure and heart rate are monitored for a minimum of 24 hours. A test compound is considered to be active as an antihypertensive agent if the mean arterial pressure (MAP) indicates a fall of >15 mm of Hg. Each animal serves as its own control.

Beta-1 = molecular target: T1, Beta-1 (Cavia porcellus, UniProt H0W3H1); conditions: guinea pig atrial pairs, isoproterenol tachycardia, Schild plot; read-out: pA2 (converted)
T1 construct: The atria were mounted in 50 ml baths in Krebs-bicarbonate buffer; from tissue; host or cells: guinea pig atria (isolated atrial pairs, female animals)
T1 sequence (H0W3H1 1-470): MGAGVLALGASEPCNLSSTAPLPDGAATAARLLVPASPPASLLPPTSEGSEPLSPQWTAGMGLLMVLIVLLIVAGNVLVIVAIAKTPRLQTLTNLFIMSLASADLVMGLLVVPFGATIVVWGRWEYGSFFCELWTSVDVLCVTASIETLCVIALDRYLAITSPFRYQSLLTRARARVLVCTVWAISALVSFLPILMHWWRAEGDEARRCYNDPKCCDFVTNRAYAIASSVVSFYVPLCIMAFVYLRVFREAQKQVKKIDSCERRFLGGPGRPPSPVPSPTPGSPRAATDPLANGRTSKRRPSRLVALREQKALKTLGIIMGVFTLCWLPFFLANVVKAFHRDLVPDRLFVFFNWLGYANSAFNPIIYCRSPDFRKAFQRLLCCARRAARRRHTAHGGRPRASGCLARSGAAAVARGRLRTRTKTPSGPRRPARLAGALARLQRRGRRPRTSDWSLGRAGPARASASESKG

[5] = KCl stimulated, 1.0 and 10.0 μM
[6] = isolated Langendorff test, 0.01 to 3.0 μM

## CC(C)(C)NCC(O)COc1ccccc1C#Cc1ccccc1.Cl (stereo not shown) [Example 1d, 1-[(1,1-Dimethylethyl)amino]-3-[2-(phenylethynyl)phenoxy]-2-propanol Hydrochloride]
[1]; KCl stimulated, 10 μM compound
  inhibition of KCl stimulated calcium influx: 100%
[1]; [5]
  inhibition of KCl stimulated effects on calcium influx: dose dependent inhibition
[1]; isolated rabbit thoracic aorta
  blockade of the potential-dependent calcium channel: significant blockade
  calcium channel blocking / calcium entry blockade activity: calcium entry blockade activities
[1]
  effect on norepinephrine-induced calcium influx: no effect
[2]; [5]
  inhibition of KCl stimulated effects on tone: dose dependent inhibition
[2]; KCl stimulated, read-out: inhibition of KCl stimulated tone
  inhibition at 10 µM: 100%
[2]; isolated rabbit thoracic aorta
  blockade of related vascular tone: significant blockade
[2]
  effect on norepinephrine-induced tone / tension: no effect
Beta Adrenergic
  β-blocking activity: β-blocking

## COc1ccc(C#Cc2ccccc2)c(OCC(O)CNCCc2ccc(OC)c(OC)c2)c1 (stereo not shown) [Example 6b, 1-[[2-(3,4-Dimethyoxyphenyl)ethyl]amino]-3-[5-methoxy-2-(phenylethynyl)phenoxy]-2-propanol (E)-2-Butenedioate (2:1)]
[3]; Langendorff isolated heart, 30% increase in flow, read-out: concentration required to elicit a 30% increase in flow
  EC30: 40 nM
[3]; at 0.1 μM
  activation at 0.1 µM: 39%
[3]; [6]
  coronary vasodilator activity: active coronary vasodilator
  effect on contractile force: no effect
  effect on spontaneous rate: no effect

## CN(C)c1ccc(C#Cc2ccccc2OCC(O)CNC(C)(C)C)cc1.O=C(O)/C=C/C(=O)O (stereo not shown) [Example 16, 1-[(1,1-Dimethylethyl)amino]-3-[2-[(4-dimethylaminophenyl)ethynyl]phenoxy]-2-propanol (E)-2-Butenedioate (1:1)]
[4]
  maximum change in mean arterial blood pressure (fall): 69 mm of Hg
[1]; KCl-dependent, 10 μM compound
  effect on KCl-dependent calcium flux: no effect
[1]; isolated rabbit thoracic aorta
  calcium channel blocking / calcium entry blockade activity: did not exhibit typical calcium channel blocking activity
[1]
  effect on norepinephrine-induced calcium influx: reduced norepinephrine-induced calcium flux
[2]; KCl-dependent, read-out: reduction of KCl-dependent contractile activity
  inhibition at 10 µM: 50%
[2]
  effect on norepinephrine-induced tone / tension: without changing tension

## CC(=O)Nc1cccc(C#Cc2ccccc2OCC(O)CNC(C)(C)C)c1 (stereo not shown) [Example 18, N-[3-[[2-[3-[(1,1-Dimethylethyl)amino]-2-hydroxypropoxy]phenyl]ethynyl]phenyl]acetamide 4-methylbenzene sulfonate]
Beta-1
  Kb: 7.08 nM
